Experimental findings from patent US20250144094A1 (Erasca, Inc., priority 2021, published 2025) are described below.

The target in this experiment is Recombinant human ULK1 (1-649) (Homo sapiens (Human), UniProt O75385). The experiment is described as follows: ULK1 ADP Glo kinase activity assay, new method (ULKtide peptide substrate). The note with it: 25° C., 40 minutes, read-out: ULK1 biochemical IC50. In a few lines:
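GST-tagged human ULK1 (1-649) from Sf9 cells was reacted with ULKtide peptide and ATP for 40 min at 25 °C across 12-point compound dilutions from 10 μM. ADP formed was quantified by ADP-Glo luminescence; IC50 came from four-parameter fits relative to DMSO controls.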
For orientation: ADP-Glo first removes unused ATP, then detects ADP through luciferase.

Structures are written as SMILES.

The term IC50 denotes the concentration at which inhibition is half-maximal.

Chain of Recombinant human ULK1 (1-649) (O75385 1-649): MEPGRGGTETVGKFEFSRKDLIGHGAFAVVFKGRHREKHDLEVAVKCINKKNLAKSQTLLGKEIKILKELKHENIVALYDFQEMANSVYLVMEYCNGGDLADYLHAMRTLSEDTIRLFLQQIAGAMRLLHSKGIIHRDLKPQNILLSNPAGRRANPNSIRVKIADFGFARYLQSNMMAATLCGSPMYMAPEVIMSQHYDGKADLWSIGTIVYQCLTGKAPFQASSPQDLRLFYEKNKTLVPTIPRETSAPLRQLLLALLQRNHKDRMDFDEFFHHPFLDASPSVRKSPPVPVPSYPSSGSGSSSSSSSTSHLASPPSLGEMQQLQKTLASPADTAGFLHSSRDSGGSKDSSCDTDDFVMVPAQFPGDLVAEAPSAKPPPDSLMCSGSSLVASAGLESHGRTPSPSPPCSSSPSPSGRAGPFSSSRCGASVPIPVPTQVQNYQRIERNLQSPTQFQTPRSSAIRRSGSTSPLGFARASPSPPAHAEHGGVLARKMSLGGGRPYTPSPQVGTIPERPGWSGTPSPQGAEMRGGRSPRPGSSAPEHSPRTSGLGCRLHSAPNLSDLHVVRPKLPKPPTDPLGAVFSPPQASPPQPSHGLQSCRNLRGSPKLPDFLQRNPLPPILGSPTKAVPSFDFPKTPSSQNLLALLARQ

Consider `CC1(CN2CCc3cc(Nc4ncc(C(F)(F)F)c(-c5cc6c(s5)C(=O)N(C5COC5)CCS6(=O)=O)n4)c(C4CC4)cc3C2)COC1` [Example 286, 7-(2-((7-cyclopropyl-2-((3-methyloxetan-3-yl)methyl)-1,2,3,4-tetrahydroisoquinolin-6-yl)amino)-5-(trifluoromethyl)pyrimidin-4-yl)-4-(oxetan-3-yl)-3,4-dihydrothieno[2,3-f][1,4]thiazepin-5(2H)-one 1,1-dioxide], for which the half-inhibitory concentration (IC50) is no more than 5 nM. In the case of `CC(C)(O)CN1CCc2cc(Nc3ncc(C(F)(F)F)c(-c4cc5c(s4)C(=O)N(C4CC4)CCS5(=O)=O)n3)c(C3CC3)cc2C1` [Example 287, 4-cyclopropyl-7-(2-((7-cyclopropyl-2-(2-hydroxy-2-methylpropyl)-1,2,3,4-tetrahydroisoquinolin-6-yl)amino)-5-(trifluoromethyl)pyrimidin-4-yl)-3,4-dihydrothieno[2,3-f][1,4]thiazepin-5(2H)-one 1,1-dioxide], the IC50 is no more than 5 nM.

As to `CCc1cc(C2CCN(CC(F)(F)F)CC2)ccc1Nc1ncc(C(F)(F)F)c(-c2cc3c(s2)C(=O)N(C2CC2)CCS3(=O)=O)n1` [Example 288, 4-cyclopropyl-7-(2-((2-ethyl-4-(1-(2,2,2-trifluoroethyl)piperidin-4-yl)phenyl)amino)-5-(trifluoromethyl)pyrimidin-4-yl)-3,4-dihydrothieno[2,3-f][1,4]thiazepin-5(2H)-one 1,1-dioxide], the IC50 is greater than 100 nM. As to `O=C1c2sc(-c3nc(Nc4cc5c(cc4C4CC4)CN(C4COC4)CC5)ncc3C(F)(F)F)cc2S(=O)(=O)CCN1C1CC1` [Example 289, 4-cyclopropyl-7-(2-((7-cyclopropyl-2-(oxetan-3-yl)-1,2,3,4-tetrahydroisoquinolin-6-yl)amino)-5-(trifluoromethyl)pyrimidin-4-yl)-3,4-dihydrothieno[2,3-f][1,4]thiazepin-5(2H)-one 1,1-dioxide], the 50% inhibitory concentration (IC50) lay in the range of 5 to 10 nM. Under `CC(C)(O)CN1CCc2cc(Nc3ncc(C(F)(F)F)c(-c4cc5c(s4)C(=O)N(C4COC4)CCS5(=O)=O)n3)c(C3CC3)cc2C1` [Example 291, 7-(2-((7-cyclopropyl-2-(2-hydroxy-2-methylpropyl)-1,2,3,4-tetrahydroisoquinolin-6-yl)amino)-5-(trifluoromethyl)pyrimidin-4-yl)-4-(oxetan-3-yl)-3,4-dihydrothieno[2,3-f][1,4]thiazepin-5(2H)-one 1,1-dioxide] stands no more than 5 nM.

Turning to `O=C1c2sc(-c3nc(Nc4cc5c(cc4C4CC4)CN(C4COC4)CC5)ncc3C(F)(F)F)cc2S(=O)(=O)CCN1C1COC1` [Example 292, 7-(2-((7-cyclopropyl-2-(oxetan-3-yl)-1,2,3,4-tetrahydroisoquinolin-6-yl)amino)-5-(trifluoromethyl)pyrimidin-4-yl)-4-(oxetan-3-yl)-3,4-dihydrothieno[2,3-f][1,4]thiazepin-5(2H)-one 1,1-dioxide], the IC50 is no more than 5 nM. On to `O=C1c2sc(-c3nc(Nc4cc5c(cc4C4CC4)CN(C4CC4)CC5)ncc3C(F)(F)F)cc2S(=O)(=O)CCN1C1CC1` [Example 293, 4-Cyclopropyl-7-(2-((2,7-dicyclopropyl-1,2,3,4-tetrahydroisoquinolin-6-yl)amino)-5-(trifluoromethyl)pyrimidin-4-yl)-3,4-dihydrothieno[2,3-f][1,4]thiazepin-5(2H)-one 1,1-dioxide], for which the concentration for half-maximal inhibition (IC50) was 5 to 10 nM.

`CCc1cc(N2CCN(C3CC3)CC2)ccc1Nc1ncc(C(F)(F)F)c(-c2cc3c(s2)C(=O)N(C2CC2)CCS3(=O)=O)n1` [Example 294, 4-Cyclopropyl-7-(2-((4-(4-cyclopropylpiperazin-1-yl)-2-ethylphenyl)amino)-5-(trifluoromethyl)pyrimidin-4-yl)-3,4-dihydrothieno[2,3-f][1,4]thiazepin-5(2H)-one 1,1-dioxide]: the 50% inhibitory concentration (IC50) was no more than 5 nM. The figure for `O=S1(=O)CCNS(=O)(=O)c2sc(-c3nc(Nc4cc5c(cc4Cl)CNCC5)ncc3C(F)(F)F)cc21` [Example 295, 7-(2-((7-chloro-1,2,3,4-tetrahydroisoquinolin-6-yl)amino)-5-(trifluoromethyl)pyrimidin-4-yl)-3,4-dihydro-2H-thieno[3,2-f][1,5,2]dithiazepine 1,1,5,5-tetraoxide] is no more than 5 nM; for `CCc1cc(C2CCN(CC(F)F)CC2)ccc1Nc1ncc(C(F)(F)F)c(-c2cc3c(s2)C(=O)N(C2COC2)CCS3(=O)=O)n1` [Example 296, 7-(2-((4-(1-(2,2-difluoroethyl)piperidin-4-yl)-2-ethylphenyl)amino)-5-(trifluoromethyl)pyrimidin-4-yl)-4-(oxetan-3-yl)-3,4-dihydrothieno[2,3-f][1,4]thiazepin-5(2H)-one 1,1-dioxide] it is 5 to 10 nM; for `CC1(C)CC(CN2CCc3cc(Nc4ncc(C(F)(F)F)c(-c5cc6c(s5)C(=O)N(C5CC5)CCS6(=O)=O)n4)c(C4CC4)cc3C2)O1` (stereo not drawn) [Example 297, 4-Cyclopropyl-7-(2-((7-cyclopropyl-2-((4,4-dimethyloxetan-2-yl)methyl)-1,2,3,4-tetrahydroisoquinolin-6-yl)amino)-5-(trifluoromethyl)pyrimidin-4-yl)-3,4-dihydrothieno[2,3-f][1,4]thiazepin-5(2H)-one 1,1-dioxide] it is no more than 5 nM. Under `CCc1cc(C2CCN(CC(F)(F)F)CC2)ccc1Nc1ncc(C(F)(F)F)c(-c2cc3c(s2)C(=O)N(C2COC2)CCS3(=O)=O)n1` [Example 298, 7-(2-((2-Ethyl-4-(1-(2,2,2-trifluoroethyl)piperidin-4-yl)phenyl)amino)-5-(trifluoromethyl)pyrimidin-4-yl)-4-(oxetan-3-yl)-3,4-dihydrothieno[2,3-f][1,4]thiazepin-5(2H)-one 1,1-dioxide] stands 10 to 50 nM; under `CC(C)(F)CN1CCc2cc(Nc3ncc(C(F)(F)F)c(-c4cc5c(s4)C(=O)N(C4CC4)CCS5(=O)=O)n3)c(C3CC3)cc2C1` [Example 299, 4-cyclopropyl-7-(2-((7-cyclopropyl-2-(2-fluoro-2-methylpropyl)-1,2,3,4-tetrahydroisoquinolin-6-yl)amino)-5-(trifluoromethyl)pyrimidin-4-yl)-3,4-dihydrothieno[2,3-f][1,4]thiazepin-5(2H)-one 1,1-dioxide], 10 to 50 nM.

Regarding `CC(C)(F)CN1CCc2cc(Nc3ncc(C(F)(F)F)c(-c4cc5c(s4)C(=O)N(C4COC4)CCS5(=O)=O)n3)c(C3CC3)cc2C1` [Example 300, 7-(2-((7-cyclopropyl-2-(2-fluoro-2-methylpropyl)-1,2,3,4-tetrahydroisoquinolin-6-yl)amino)-5-(trifluoromethyl)pyrimidin-4-yl)-4-(oxetan-3-yl)-3,4-dihydrothieno[2,3-f][1,4]thiazepin-5(2H)-one 1,1-dioxide], the IC50 was in the range of 10 to 50 nM. The figure for `O=C1c2sc(-c3nc(Nc4cc5c(cc4C4CC4)CN(C4CC4)CC5)ncc3C(F)(F)F)cc2S(=O)(=O)CCN1C1COC1` [Example 301, 7-(2-((2,7-dicyclopropyl-1,2,3,4-tetrahydroisoquinolin-6-yl)amino)-5-(trifluoromethyl)pyrimidin-4-yl)-4-(oxetan-3-yl)-3,4-dihydrothieno[2,3-f][1,4]thiazepin-5(2H)-one 1,1-dioxide] is no more than 5 nM. In the case of `CN1CCS(=O)(=O)c2cc(-c3nc(Nc4cc5c(cc4Cl)CNCC5)ncc3C(F)(F)F)sc2S1(=O)=O` [Example 302, 7-(2-((7-chloro-1,2,3,4-tetrahydroisoquinolin-6-yl)amino)-5-(trifluoromethyl)pyrimidin-4-yl)-2-methyl-3,4-dihydro-2H-thieno[3,2-f][1,5,2]dithiazepine 1,1,5,5-tetraoxide], the concentration for half-maximal inhibition (IC50) is no more than 5 nM. Under `O=C1c2sc(-c3nc(Nc4cc5c(nc4C4CC4)CNCC5)ncc3C(F)(F)F)cc2S(=O)(=O)CCN1C1CC1` [Example 303, 4-cyclopropyl-7-(2-((2-cyclopropyl-5,6,7,8-tetrahydro-1,7-naphthyridin-3-yl)amino)-5-(trifluoromethyl)pyrimidin-4-yl)-3,4-dihydrothieno[2,3-f][1,4]thiazepin-5(2H)-one 1,1-dioxide] stands no more than 5 nM; under `O=C1c2sc(-c3nc(Nc4cc5c(nc4C4CC4)CNCC5)ncc3C(F)(F)F)cc2S(=O)(=O)CCN1C1COC1` [Example 304, 7-(2-((2-cyclopropyl-5,6,7,8-tetrahydro-1,7-naphthyridin-3-yl)amino)-5-(trifluoromethyl)pyrimidin-4-yl)-4-(oxetan-3-yl)-3,4-dihydrothieno[2,3-f][1,4]thiazepin-5(2H)-one 1,1-dioxide], no more than 5 nM; under `O=C1c2sc(-c3nc(Nc4ccc(N5C[C@@H]6C[C@H]5CN6)cc4C4CC4)ncc3C(F)(F)F)cc2S(=O)(=O)CCN1C1CC1` [Example 305, 7-(2-((4-((1S,4S)-2,5-diazabicyclo[2.2.1]heptan-2-yl)-2-cyclopropylphenyl)amino)-5-(trifluoromethyl)pyrimidin-4-yl)-4-cyclopropyl-3,4-dihydrothieno[2,3-f][1,4]thiazepin-5(2H)-one 1,1-dioxide], no more than 5 nM. For `CN1C[C@@H]2C[C@H]1CN2c1ccc(Nc2ncc(C(F)(F)F)c(-c3cc4c(s3)C(=O)N(C3CC3)CCS4(=O)=O)n2)c(C2CC2)c1` [Example 306, 4-Cyclopropyl-7-(2-((2-cyclopropyl-4-((1S,4S)-5-methyl-2,5-diazabicyclo[2.2.1]heptan-2-yl)phenyl)amino)-5-(trifluoromethyl)pyrimidin-4-yl)-3,4-dihydrothieno[2,3-f][1,4]thiazepin-5(2H)-one 1,1-dioxide], the IC50 is no more than 5 nM.

As for `O=C1c2sc(-c3nc(Nc4ccc(N5C[C@H]6CC[C@@H](C5)N6)cc4C4CC4)ncc3C(F)(F)F)cc2S(=O)(=O)CCN1C1CC1` [Example 307, 7-(2-((4-((1R,5S)-3,8-diazabicyclo[3.2.1]octan-3-yl)-2-cyclopropylphenyl)amino)-5-(trifluoromethyl)pyrimidin-4-yl)-4-cyclopropyl-3,4-dihydrothieno[2,3-f][1,4]thiazepin-5(2H)-one 1,1-dioxide], the IC50 was no more than 5 nM.
